Drawing on the supplement of paper PMC10307832, this text covers relative viability for 8 cell lines.

Holding throughout (assay): relative viability (nuclei count vs DMSO), 5 days (fraction); higher = more cells survive
Compound in the assay “QS11 + Tozasertib”: C1CC2=C(C1)C=C(C=C2)OC3=NC(=C4C(=N3)N(C=N4)CC5=CC=C(C=C5)C6=CC=CC=C6)N[C@@H](CC7=CC=CC=C7)CO [QS11] + Cc1cc(Nc2cc(N3CCN(C)CC3)nc(Sc3ccc(NC(=O)C4CC4)cc3)n2)n[nH]1 [Tozasertib] (partner 0.1 µM)
The essentials: (§1)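 Dosing by pin tool came one day after lung cancer cell lines were seeded in 1536-well plates, using either one drug or a fixed anchor-drug dose plus five library-drug doses (not always all listed) in √10 steps. After 5 days, nuclei were counted on 4× images. Relative viability is treated-well nuclei count divided by vehicle-well nuclei count, and values are medians of duplicate plates.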

Compound in assay [1]: C[As](C)SC[C@H](NC(=O)CC[C@H](N)C(=O)O)C(=O)NCC(=O)O [Darinaparsin] + O=C(CCCCCCC(=O)Nc1ccccc1)NO [Vorinostat] (partner 1 µM)
The essentials:
as §1

Compound in the assay “AZ628 + OSI-027”: CC1=C(C=C(C=C1)NC(=O)C2=CC(=CC=C2)C(C)(C)C#N)NC3=CC4=C(C=C3)N=CN(C4=O)C [AZ628] + COc1cccc2cc(-c3nc([C@H]4CC[C@H](C(=O)O)CC4)n4ncnc(N)c34)[nH]c12 [OSI-027] (partner 0.5 µM)
Summed up: as §1

Compound in assay [2]: C[As](C)SC[C@H](NC(=O)CC[C@H](N)C(=O)O)C(=O)NCC(=O)O [Darinaparsin] + CS(=O)(=O)N1CCN(Cc2cc3nc(-c4cccc5[nH]ncc45)nc(N4CCOCC4)c3s2)CC1 [Pictilisib] (partner 1 µM)
The essentials: as §1

Regarding NCI-H3122, the relative viability was 0.45 with QS11 + Tozasertib (first compound 0.08 µM); 0.496 in the assay with QS11 + Tozasertib (first compound 0.253 µM); 0.374 in the assay with QS11 + Tozasertib (first compound 2.53 µM); 0.201 in the assay with QS11 + Tozasertib (first compound 8 µM); 1.18 in assay [1] (first compound 0.08 µM); 1.22 in assay [1] (first compound 0.8 µM). In addition, the relative viability in assay [1] (first compound 2.53 µM) is 0.927; in assay [1] (first compound 8 µM), 1.36; with AZ628 + OSI-027 (first compound 0.08 µM), 0.559; with AZ628 + OSI-027 (first compound 0.253 µM) it was 0.344; with AZ628 + OSI-027 (first compound 0.8 µM), 0.287; with AZ628 + OSI-027 (first compound 2.53 µM), 0.267. Moreover, the relative viability is 0.16 with AZ628 + OSI-027 (first compound 8 µM); 0.711 in assay [2] (first compound 0.08 µM); 0.583 in assay [2] (first compound 0.8 µM); 0.636 in assay [2] (first compound 2.53 µM); 0.707 in assay [2] (first compound 8 µM).

With PC-3 [JPC-3], the relative viability in the assay with QS11 + Tozasertib (first compound 0.08 µM) worked out at 0.881; in the assay with QS11 + Tozasertib (first compound 0.253 µM), 0.939; with QS11 + Tozasertib (first compound 0.8 µM), 0.857; with QS11 + Tozasertib (first compound 2.53 µM), 0.972; with QS11 + Tozasertib (first compound 8 µM) it was 0.764; in assay [1] (first compound 0.08 µM), 0.903. Besides, the relative viability in assay [1] (first compound 0.8 µM) turned out to be 0.739; in assay [1] (first compound 2.53 µM), 0.945; in assay [1] (first compound 8 µM), 0.872; with AZ628 + OSI-027 (first compound 0.08 µM) it was 0.791; in the assay with AZ628 + OSI-027 (first compound 0.253 µM), 0.731; with AZ628 + OSI-027 (first compound 0.8 µM), 0.753. Moreover, the relative viability in the assay with AZ628 + OSI-027 (first compound 2.53 µM) was 0.815; with AZ628 + OSI-027 (first compound 8 µM), 0.683; in assay [2] (first compound 0.08 µM) it was 0.747; in assay [2] (first compound 0.8 µM), 0.674; in assay [2] (first compound 2.53 µM), 0.63; in assay [2] (first compound 8 µM), 0.877.

Regarding PC-14, the relative viability with QS11 + Tozasertib (first compound 0.08 µM) turned out to be 0.552; in the assay with QS11 + Tozasertib (first compound 0.253 µM), 0.575; with QS11 + Tozasertib (first compound 0.8 µM), 0.487; in the assay with QS11 + Tozasertib (first compound 2.53 µM) it was 0.652; with QS11 + Tozasertib (first compound 8 µM), 0.602; in assay [1] (first compound 0.08 µM) it was 0.691. Moreover, the relative viability in assay [1] (first compound 0.8 µM) amounted to 0.753; in assay [1] (first compound 2.53 µM), 0.545; in assay [1] (first compound 8 µM) it was 0.572; with AZ628 + OSI-027 (first compound 0.08 µM), 0.727; in the assay with AZ628 + OSI-027 (first compound 0.253 µM) it was 0.956; with AZ628 + OSI-027 (first compound 0.8 µM), 0.733. Also, the relative viability with AZ628 + OSI-027 (first compound 2.53 µM) is 0.666; with AZ628 + OSI-027 (first compound 8 µM) it was 0.329; in assay [2] (first compound 0.08 µM), 1.15; in assay [2] (first compound 0.8 µM), 0.823; in assay [2] (first compound 2.53 µM) it was 0.566; in assay [2] (first compound 8 µM) it was 0.752.

Consider RERF-LC-KJ, for which the relative viability in the assay with QS11 + Tozasertib (first compound 0.08 µM) came to 0.521; with QS11 + Tozasertib (first compound 0.253 µM), 0.429; with QS11 + Tozasertib (first compound 0.8 µM), 0.42; with QS11 + Tozasertib (first compound 2.53 µM) it was 0.274; with QS11 + Tozasertib (first compound 8 µM), 0.274; in assay [1] (first compound 0.08 µM) it was 0.686. Further, the relative viability in assay [1] (first compound 0.8 µM) was determined as 0.742; in assay [1] (first compound 2.53 µM), 0.563; in assay [1] (first compound 8 µM) it was 0.723; with AZ628 + OSI-027 (first compound 0.08 µM), 0.53; with AZ628 + OSI-027 (first compound 0.253 µM), 0.523; with AZ628 + OSI-027 (first compound 0.8 µM), 0.528. Besides, the relative viability came out at 0.462 with AZ628 + OSI-027 (first compound 2.53 µM); 0.458 with AZ628 + OSI-027 (first compound 8 µM); 0.576 in assay [2] (first compound 0.08 µM); 0.571 in assay [2] (first compound 0.8 µM); 0.522 in assay [2] (first compound 2.53 µM); 0.44 in assay [2] (first compound 8 µM).

For the cell line SK-LU-1, the relative viability in the assay with QS11 + Tozasertib (first compound 0.08 µM) is 0.293; with QS11 + Tozasertib (first compound 0.253 µM), 0.323; with QS11 + Tozasertib (first compound 0.8 µM), 0.352; with QS11 + Tozasertib (first compound 2.53 µM) it was 0.312; with QS11 + Tozasertib (first compound 8 µM) it was 0.278; in assay [1] (first compound 0.08 µM), 0.742. Also, the relative viability was found to be 0.784 in assay [1] (first compound 0.8 µM); 0.591 in assay [1] (first compound 2.53 µM); 0.702 in assay [1] (first compound 8 µM); 0.315 in the assay with AZ628 + OSI-027 (first compound 0.253 µM); 0.276 in the assay with AZ628 + OSI-027 (first compound 0.8 µM); 0.33 with AZ628 + OSI-027 (first compound 2.53 µM). In addition, the relative viability is 0.208 with AZ628 + OSI-027 (first compound 8 µM); 0.661 in assay [2] (first compound 0.08 µM); 0.58 in assay [2] (first compound 0.8 µM); 0.502 in assay [2] (first compound 2.53 µM); 0.789 in assay [2] (first compound 8 µM).

As to SK-MES-1, the relative viability with QS11 + Tozasertib (first compound 0.08 µM) was 1.04; in the assay with QS11 + Tozasertib (first compound 0.253 µM), 0.906; with QS11 + Tozasertib (first compound 0.8 µM), 0.833; with QS11 + Tozasertib (first compound 2.53 µM), 0.905; in the assay with QS11 + Tozasertib (first compound 8 µM), 0.745; in assay [1] (first compound 0.08 µM) it was 1.11. Besides, the relative viability in assay [1] (first compound 0.8 µM) turned out to be 1.07; in assay [1] (first compound 2.53 µM), 0.924; in assay [1] (first compound 8 µM) it was 1.43; with AZ628 + OSI-027 (first compound 0.08 µM), 0.599; with AZ628 + OSI-027 (first compound 0.253 µM) it was 0.593; with AZ628 + OSI-027 (first compound 0.8 µM), 0.653. Besides, the relative viability was 0.572 with AZ628 + OSI-027 (first compound 2.53 µM); 0.297 with AZ628 + OSI-027 (first compound 8 µM); 0.354 in assay [2] (first compound 0.08 µM); 0.353 in assay [2] (first compound 0.8 µM); 0.336 in assay [2] (first compound 2.53 µM); 0.401 in assay [2] (first compound 8 µM).

Take SW 1573: the relative viability stood at 0.235 with QS11 + Tozasertib (first compound 0.08 µM); 0.138 in the assay with QS11 + Tozasertib (first compound 0.253 µM); 0.186 with QS11 + Tozasertib (first compound 0.8 µM); 0.212 in the assay with QS11 + Tozasertib (first compound 2.53 µM); 0.197 with QS11 + Tozasertib (first compound 8 µM); 0.837 in assay [1] (first compound 0.08 µM). The relative viability worked out at 0.754 in assay [1] (first compound 0.8 µM); 0.653 in assay [1] (first compound 2.53 µM); 0.738 in assay [1] (first compound 8 µM); 0.669 with AZ628 + OSI-027 (first compound 0.08 µM); 0.555 with AZ628 + OSI-027 (first compound 0.253 µM); 0.359 with AZ628 + OSI-027 (first compound 0.8 µM). Also, the relative viability was 0.362 with AZ628 + OSI-027 (first compound 2.53 µM); 0.26 in the assay with AZ628 + OSI-027 (first compound 8 µM); 0.621 in assay [2] (first compound 0.08 µM); 0.545 in assay [2] (first compound 0.8 µM); 0.49 in assay [2] (first compound 2.53 µM); 0.495 in assay [2] (first compound 8 µM).

UMC-11: the relative viability amounted to 0.174 with QS11 + Tozasertib (first compound 0.08 µM); 0.27 with QS11 + Tozasertib (first compound 0.253 µM); 0.182 with QS11 + Tozasertib (first compound 0.8 µM); 0.181 in the assay with QS11 + Tozasertib (first compound 2.53 µM); 0.184 with QS11 + Tozasertib (first compound 8 µM); 0.339 in assay [1] (first compound 0.08 µM). Further, the relative viability is 0.314 in assay [1] (first compound 0.8 µM); 0.384 in assay [1] (first compound 2.53 µM); 0.308 in assay [1] (first compound 8 µM); 0.468 with AZ628 + OSI-027 (first compound 0.08 µM); 0.496 in the assay with AZ628 + OSI-027 (first compound 0.253 µM); 0.46 with AZ628 + OSI-027 (first compound 0.8 µM). For the same cell line, the relative viability with AZ628 + OSI-027 (first compound 2.53 µM) is 0.464; with AZ628 + OSI-027 (first compound 8 µM) it was 0.382; in assay [2] (first compound 0.08 µM), 0.897; in assay [2] (first compound 0.8 µM), 0.821; in assay [2] (first compound 2.53 µM), 0.75; in assay [2] (first compound 8 µM), 0.915.
